Where a chain is given by its changes, count along the chain named. Positions of bridges follow the written chain, without caps; N, C: chain ends. Non-standard residues stand in square brackets, D forms with d. Residues, ends and D or L forms follow the SMILES beside them. *: point of attachment. 5FAM = O=C1OC2(c3ccc(O)cc3Oc3cc(O)ccc32)c2ccc(C(=O)*)cc21; 6FAM = O=C1OC2(c3ccc(O)cc3Oc3cc(O)ccc32)c2cc(C(=O)*)ccc21; S5 = C=CCCC[C@](C)(N)C(=O)O; AEEEA = NCCOCCOCCOCC(=O)O
Assays:
[1] = molecular target: T1, CHC^ankle (clathrin heavy chain aa 358–574) (Homo sapiens, UniProt Q00610); assay: Fluorescence polarisation direct binding assay, CHC ankle WT; details: direct binding FP, FAM labelled peptides; CHC WT (385–574); mean of three experiments ± SD; read-out: KD, stapled and control peptides, CHC WT
T1 construct: we used the minimal ankle region of CHC (CHC^ankle, aa 358–574); GST (TEV-cleavable); made in house
T1 sequence (Q00610 358-574): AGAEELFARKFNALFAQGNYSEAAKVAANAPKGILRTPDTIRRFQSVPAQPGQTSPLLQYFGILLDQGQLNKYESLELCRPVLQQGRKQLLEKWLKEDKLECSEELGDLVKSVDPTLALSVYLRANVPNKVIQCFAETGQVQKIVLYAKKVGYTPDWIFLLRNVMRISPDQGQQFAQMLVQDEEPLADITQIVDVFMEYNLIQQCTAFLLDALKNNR
Description: (§1) Binding affinity of CHC and TACC3 peptides was calculated based on fluorescence polarization assays performed as reported previously, using linear and stapled FAM-TACC3 peptides corresponding to aa 549–570 of human TACC3 protein. Linear peptides were purchased from PPR (Fareham, UK); Alta Bioscience (Redditch, UK); Biomatik Corporation (Ontario, Canada). Stock solutions of peptides were 10 mM in DMSO. Binding assays were performed in triplicate in the binding buffer 20 mM HEPES pH 7.5, 150 mM NaCl, 5 mM DTT, 0.05% Tween-20. Data analysis was performed using a one-site specific binding model in Prism (GraphPad software, v10.1.0).

K507A-CHC^ankle = molecular target: T2, K507A-CHC^ankle (Homo sapiens, UniProt Q00610, K507A); assay: Fluorescence polarisation direct binding assay, K507A-CHC ankle; details: direct binding FP, FAM labelled peptides; CHC with K507A substitution; mean of three experiments ± SD; read-out: KD, stapled and control peptides, CHC K507A
T2 construct: we used the minimal ankle region of CHC (CHC^ankle, aa 358–574); GST (TEV-cleavable); made in house
T2 sequence (Q00610 358-574 K507A): T1 sequence (Q00610 358-574) with K150A
From the text: CHC constructs for binding studies were produced during previous work by cloning the respective CHC coding sequence of Q00610 (CLH1_HUMAN) aa 1–574 and 358–574, respectively) into a modified pGEX vector containing a TEV-cleavable GST tag[26]. Point mutations K506A and K507A were introduced by site-directed mutagenesis. GB1-TACC3 is the small protein GB1[47] fused to a short, disordered peptide sequence from human TACC3 (Q9Y6A5, aa 545–573). This hybrid sequence was cloned into a pETM6T1 vector which contains a TEV protease-cleavable N-terminal His-NusA tag.
as §1

HeLa cells = assay: Confocal microscopy of fixed HeLa cells (peptide localisation, endogenous TACC3 and CHC on mitotic spindle); type: cell-based
Description: HeLa cells grown on glass coverslips in complete growth medium and treated with 2.5, 5 and 10 μM FAM-peptides for 5 h. Cells were washed with PBS and fixed with PTEMF (20 mM PIPES, pH 6.8, 10 mM EGTA, 1 mM MgCl2, 0.2% Triton X-100 and 4% paraformaldehyde) for 10 min and permeabilized at room temperature in 0.5% Triton-X100 in PBS for 10 min. Cells were blocked in 3% BSA in PBS for 1 h and incubated overnight with primary antibodies diluted in 3% BSA/PBS buffer followed by 1 h incubation with secondary antibodies. Primary antibodies were as follows: mouse anti-CHC (X22; GTX22731; 1:250), rabbit anti-TACC3 (ab134154, Abcam; 1:500). Secondary antibodies were anti-mouse IgG Atto 594 (1:250, 76085, Merck) and anti-rabbit IgG Atto 647N antibody (1:250, 40839, Merck). Coverslips were mounted with ProLong Gold antifade reagent with DAPI (Invitrogen). Peptides were imaged using their 6-FAM fluorescent tag with a 488 nm argon laser. Imaging was performed on a Zeiss LSM880 upright confocal microscope using a 40x/1.4 NA oil objective. Z-stacks comprising of 9–13 × 1 μm sections were acquired. Images were captured using identical settings. The region of interest (~0.6 μm^2) was quantified in three different locations over the spindle, cytoplasm and in the non-cell region of background. Images were analysed using Fiji (v.2.9.0).

Row | Kd [1] | Kd (K507A-CHC^ankle) | SMILES | other results
1 | 78 ± 3 µM | 22 ± 6 µM | CC(C)C[C@@H]1NC(=O)[C@H](C)NC(=O)[C@H](CO)NC(=O)[C@@](C)(NC(=O)[C@H](CCCCN)NC(=O)[C@H](Cc2ccccc2)NC(=O)c2ccc3c(c2)C(=O)OC32c3ccc(O)cc3Oc3cc(O)ccc32)CCCC=CCCC[C@@](C)(C(=O)N[C@@H](CCCCN)C(=O)N[C@@H](CCC(N)=O)C(=O)N[C@@H](CCC(=O)O)C(=O)N[C@@H](CC(C)C)C(=O)N[C@@H](Cc2ccc(O)cc2)C(=O)N[C@@H](CC(C)C)C(=O)N[C@@H](CCCCN)C(=O)N[C@@H](Cc2ccccc2)C(=O)N[C@@H](CC(=O)O)C(=O)N2CCC[C@H]2C(=O)N[C@@H](CC(C)C)C(=O)N[C@@H](CC(C)C)C(=O)N[C@@H](CCCNC(=N)N)C(=O)N[C@@H](CC(=O)O)C(=O)N[C@@H](CO)C(N)=O)NC1=O [SP3E] (5FAM-FK[S5]SAL[S5]KQELYLKFDPLLRDS-NH2; staple 3-7) | –
2 | – | 146 ± 3 µM | CC(C)C[C@H](NC(=O)[C@H](C)NC(=O)[C@H](CO)NC(=O)[C@H](CCC(=O)O)NC(=O)[C@H](CCCCN)NC(=O)[C@H](Cc1ccccc1)NC(=O)c1ccc2c(c1)C(=O)OC21c2ccc(O)cc2Oc2cc(O)ccc21)C(=O)N[C@@H](CCCNC(=N)N)C(=O)N[C@@H](CCCCN)C(=O)N[C@@H](CCC(N)=O)C(=O)N[C@@H](CCC(=O)O)C(=O)N[C@@H](CC(C)C)C(=O)N[C@@H](Cc1ccc(O)cc1)C(=O)N[C@@]1(C)CCCC=CCCC[C@@](C)(C(=O)N[C@@H](CC(C)C)C(=O)N[C@@H](CC(C)C)C(=O)N[C@@H](CCCNC(=N)N)C(=O)N[C@@H](CC(=O)O)C(=O)N[C@@H](CO)C(N)=O)NC(=O)[C@H](CC(=O)O)NC(=O)[C@H](Cc2ccccc2)NC(=O)[C@H](CCCCN)NC1=O [SP5E] (5FAM-FKESALRKQELY[S5]KFD[S5]LLRDS-NH2; staple 13-17) | –

The next lines start with the compound.

Row | SMILES | Kd [1] | Kd (K507A-CHC^ankle) | other results
3 | CC(C)C[C@@H]1NC(=O)[C@H](C)NC(=O)[C@H](CO)NC(=O)[C@@](C)(NC(=O)[C@H](CCCCN)NC(=O)[C@H](Cc2ccccc2)NC(=O)c2ccc3c(c2)C2(OC3=O)c3ccc(O)cc3Oc3cc(O)ccc32)CCCC=CCCC[C@@](C)(C(=O)N[C@@H](CCCCN)C(=O)N[C@@H](CCC(N)=O)C(=O)N[C@@H](CC(=O)O)C(=O)N[C@@H](CC(C)C)C(=O)N[C@@H](Cc2ccc(O)cc2)C(=O)N[C@@H](CC(C)C)C(=O)N[C@@H](CCCCN)C(=O)N[C@@H](Cc2ccccc2)C(=O)N[C@@H](CC(=O)O)C(=O)N2CCC[C@H]2C(=O)N[C@@H](CC(C)C)C(=O)N[C@@H](CC(C)C)C(=O)N[C@@H](CCCNC(=N)N)C(=O)N[C@@H](CC(=O)O)C(=O)N[C@@H](CO)C(N)=O)NC1=O [SP3D] (6FAM-FK[S5]SAL[S5]KQDLYLKFDPLLRDS-NH2; staple 3-7) | 92 ± 3 µM | 23 ± 6 µM | –
4 | CC(C)C[C@H](NC(=O)[C@H](C)NC(=O)[C@H](CO)NC(=O)[C@H](CCC(=O)O)NC(=O)[C@H](CCCCN)NC(=O)c1ccc2c(c1)C(=O)OC21c2ccc(O)cc2Oc2cc(O)ccc21)C(=O)N[C@@H](CCCNC(=N)N)C(=O)N[C@@H](CCCCN)C(=O)N[C@@H](CCC(N)=O)C(=O)N[C@@H](CCC(=O)O)C(=O)N[C@@H](CC(C)C)C(=O)N[C@@H](CC(C)C)C(=O)N[C@@H](CC(C)C)C(=O)N[C@@H](CCC(=O)O)C(=O)N[C@@H](Cc1ccccc1)C(=O)N[C@@H](CC(=O)O)C(=O)N1CCC[C@H]1C(=O)N[C@@H](CC(C)C)C(=O)N[C@@H](Cc1ccccc1)C(=O)N[C@@H](CCCNC(=N)N)C(N)=O [Opt P6 TACC3 S558E] (5FAM-KESALRKQELLLEFDPLFR-NH2; N-terminus and C-terminus assumed) | – | – | cell permeability seen by confocal imaging (HeLa cells; fixed HeLa cells, 5 h after adding 5 μM FAM-peptide to the culture medium): not sufficiently cell permeable
5 | CC(C)C[C@H](NC(=O)[C@H](C)NC(=O)[C@H](CO)NC(=O)[C@H](CCC(=O)O)NC(=O)[C@H](CCCCN)NC(=O)COCCOCCOCCNC(=O)c1ccc2c(c1)C1(OC2=O)c2ccc(O)cc2Oc2cc(O)ccc21)C(=O)N[C@@H](CCCNC(=N)N)C(=O)N[C@@H](CCCCN)C(=O)N[C@@]1(C)CCCC=CCCC[C@@](C)(C(=O)N[C@@H](CCC(=O)O)C(=O)N[C@@H](Cc2ccccc2)C(=O)N[C@@H](CC(=O)O)C(=O)N2CCC[C@H]2C(=O)N[C@@H](CC(C)C)C(=O)N[C@@H](Cc2ccccc2)C(=O)N[C@@H](CCCNC(=N)N)C(=O)N[C@@H](CC(=O)O)C(=O)N[C@@H](CO)C(N)=O)NC(=O)[C@H](CC(C)C)NC(=O)[C@H](CC(C)C)NC(=O)[C@H](CCC(=O)O)NC1=O [Opt PEG3 SP TACC3] ({6FAM-AEEEA}-KESALRK[S5]ELL[S5]EFDPLFRDS-NH2; staple 8-12) | – | – | colocalisation with endogenous TACC3 on the mitotic spindle (HeLa cells; fixed mitotic HeLa cells, FAM-labelled peptides, confocal microscopy): colocalised with endogenous TACC3 on the mitotic spindle; reduction of endogenous TACC3 levels in the mitotic spindle (HeLa cells; metaphase HeLa cells, peptide 2.5, 5 and 10 μM, 5 h, compared to the negative control SP TACC3 peptide): up to 40%
6 | CC(C)C[C@H](NC(=O)[C@H](Cc1ccc(O)cc1)NC(=O)[C@H](CC(C)C)NC(=O)[C@]1(C)CCCC=CCCC[C@](C)(NC(=O)[C@H](C)NC(=O)[C@H](CO)NC(=O)[C@H](CCC(=O)O)NC(=O)[C@H](CCCCN)NC(=O)[C@H](Cc2ccccc2)NC(=O)c2ccc3c(c2)C2(OC3=O)c3ccc(O)cc3Oc3cc(O)ccc32)C(=O)N[C@@H](CCCNC(=N)N)C(=O)N[C@@H](CCCCN)C(=O)N[C@@H](CCC(N)=O)C(=O)N1)C(=O)N[C@@H](CCCCN)C(=O)N[C@@H](Cc1ccccc1)C(=O)N[C@@H](CC(=O)O)C(=O)N1CCC[C@H]1C(=O)N[C@@H](CC(C)C)C(=O)N[C@@H](CC(C)C)C(=O)N[C@@H](CCCNC(=N)N)C(=O)N[C@@H](CC(=O)O)C(=O)N[C@@H](CO)C(N)=O [SP2] (6FAM-FKESA[S5]RKQ[S5]LYLKFDPLLRDS-NH2; staple 6-10) | 145 ± 3 µM | 23 ± 5 µM | –
